The nature of series [1]: Raman scattering measurements of peptide conformation (stability of the peptide). Format: physicochemical. The following applies: in water, peptide 0.9 mM, with or without HA 1%. How it is done:
Peptide alone, at a concentration of 0.9 mM (2.5 mg/ml), was dissolved in a Millipore filter treated water. Peptide+HA solution consists of peptide dissolved at 0.9 mM in a solution of HA (1.8 MDa) at 1% (10 mg/ml) in water.
Samples were placed in a suprasil quartz cell (5 mm path length) and excited by the 488 nm line of an Ar+ laser (Spectra Physics, CA, USA) with a ˜200 mW power at the sample. Scattered light at right angle was analyzed on a Jobin-Yvon T64000 (HORIBA Jobin-Yvon, France) in a single spectrograph configuration with a 1200 grooves per mm holographic grating and a holographic notch filter. Stokes Raman data were collected by means of a liquid nitrogen cooled CCD detection system (Spectrum One, Jobin-Yvon, France). The effective spectral slit width was set to ˜5 cm^−1. Each recorded spectrum corresponds to a total acquisition time of 1200 s. Buffer subtraction and smoothing of the observed Raman spectra could be performed using the GRAMS/AI package (Thermoage Galactic, MA, USA). The final presentation of these spectra was performed by means of SigmaPlot package (Systat Software Inc., CA, USA).

Series [2] has as its system male Duncan-Hartley guinea pigs. In words: In vivo efficiency in guinea pig spontaneous knee osteoarthritis, intra-articular injection, histological analysis. The following applies: for cartilage thickness / sum of the scores representing the degradation of several structures in the joint (total scoring of degradation parameters): five month after intra-articular injection of 50 μl per knee; for cartilage thickness: * p<0.05; for sum of the scores representing the degradation of several structures in the joint (total scoring of degradation parameters): peptide 10^−7 M, vs control and hyaluronic acid alone. How it is done: Peptide of the invention (corresponding to SEQ ID NO: 4) was dissolved at 2.5 mg/ml in water for injection (CDM Lavoisier) to make a stock solution conserved at −20° C. The syringe was prepared by aspiration of 50 μl of peptide work solution prepared just before use at 10^−7 M (other concentrations are tested) in NaCl 0.9% and kept on ice until use.
The study was performed on male Duncan-Hartley guinea pigs (Harlan), whose particularity is to be affected with age of spontaneous and progressive degeneration of the knee that closely resembles knee osteoarthritis (OA) in humans. Seven 5-month-old animals (weighing 879 g.+/−58.1) were injected per group. Animals were treated in accordance with institutional animal care guidelines. Animals were anesthetized with an anesthesia module (Minerva) with a rapid induction device (4% isoflurane) and anesthesia was maintained using a specific device mask in guinea coaxial (2.5% isoflurane). 50 μl of the peptide of the invention or control—salt solution or Hyalgan® (10 mg/ml solution of MW 500-730 kDa hyaluronic—Laboratoire Expanscience, available in the market)—were injected on each hind legs of the animal into the joint space from the lateral side using a 29 G needle. This was followed by passive knee joint movements to facilitate the intra-articular distribution of the solution.
Five month after injection, the two knee joints from each animal were fixed for 36 to 48 hours in 10% buffered formalin then kept in 70% ethanol and followed by decalcification in 15% EDTA in phosphate buffer. Paraffin sections (3-4 μm) of the central region of the joint were stained with haematoxylin and eosin for histological analyses of cartilage structure, namely: loss of cartilage matrix, cellular abnormalities, appearance of articular cartilage mineralization front, formation of osteophytes and synovial membrane (microscopy: Nikon 80i). A semi-quantitative modified Mankin histological grading system was used to evaluate OA severity (Kraus et al., The OARSI histopathology initiative recommendations for histological assessments of osteoarthritis in the Guinea Pig. Osteoarthritis Cartilage, 2010 (18 S3) S35-S52). The articular cartilage area was analyzed quantitatively by immunohistochemistry (Pastoureau et al., Cartilage, bone and synovial histomorphometry in animal models of osteoarthritis. Osteoarthritis Cartilage. 2010 October; 18 Suppl 3:S106-12). Sections of guinea pig knees were stained with monoclonal antibody (monoclonal anti-chicken mouse collagen II, 6B3 clone—reference MAB887/250, Millipore). The measurement of the total area of articular cartilage was performed with Color deconvolution H DAB and Siox and the measurement of joint height by ImageJ (“Fit Ellipse” module). Statistical analyzes of scoring and quantification results were performed using a Kruskal-Wallis test followed by Dunn's test using PRISM software.

Where [3] appears, read: listed as peptide of the invention.
The mark [4] stands for this setting: five month after intra-articular injection, medial tibial surface of the knee, compared with sham (and HA).

Where “and” joins values, the source holds several entries; their conditions need not be identical. Equal entries are not always repeated. No end group written: not given here.

Consider GTSDRVYEKLAGSKNFFWKTFTSS [SEQ ID NO: 4], for which, in series [1], the “secondary conformation / structure stability by Raman spectra” value was “unstable structure in water”. For the same sequence, the “secondary conformation / structure stability by Raman spectra” value in series [1] (listed as peptide alone) is “Several (4) secondary conformations and 4 major bands”. Moreover, in series [2], the cartilage thickness result is reported as “increased cartilage thickness” and the “sum of the scores representing the degradation of several structures in the joint (total scoring of degradation parameters)” value was “significantly decreased degradation of cartilage structure”. In series [2] (setting [3]), the cartilage thickness result is “increase in the thickness of the cartilage” and the “sum of the scores representing the degradation of several structures in the joint (total scoring of degradation parameters)” value is reported as “lowest”. For the same sequence, the osteophytes scoring result in series [2] (five month after intra-articular injection, ** p<0.001) is recorded as “decreased osteophytes scoring”. Also, in series [2] (five month after intra-articular injection, immunohistochemistry, compared with sham (and HA)), the “type II Collagen content (staining)” value is on record as “greater synthesis of type II collagen”. Besides, in series [2] (setting [4]), the “cartilage structure scoring (cartilage structural damage)” value is listed as “lowest severity” and the “proteoglycan content (proteoglycan loss)” value is given as “lowest severity”.

The record behind these values is patent US10813980B2, “Methods for treating osteoarthritis by administering linked variants of growth hormone and somatostatin” (REGULAXIS, priority 2016, dated 2020).
